Test results from US20110091574A1, “TREATMENT OF ADENOCARCINOMA EXPRESSING LKB1 WITH MTOR INHIBITOR IN COMBINATION WITH COX2 INHIBITOR” (Catholic Healthcare West, priority 2008, published 2011).

Legend:
[1] = test system: AMPK phosphorylation in H2009, H441, H23, H2122 NSCLC cell lines; assay: Immunoblot of AMPK Thr172 phosphorylation after 2-DG; format: cell-based, human; details: 20 mM 2-DG, 1 hour; LKB1 positive H2009, H441 vs LKB1 negative H23, H2122
Description: (§1) FIG. 3 (in three panels, A, B and C) illustrates the effect of 2-deoxyglucose (2-DG) in LKB1 null and LKB1 expressing NSCLC cells. FIG. 3A is an immunoblot of LKB1 in H23, H2122, H2009 and H441 NSCLC cell lines. GAPDH was used as a loading control. FIG. 3B illustrates an immunoblot showing the induction of AMPK phosphorylation by 2-DG. LKB1 positive (H2009, H441) and LKB1 negative (H23, H2122) cell lines were treated with 20 mM of 2-DG for 1 hour. Protein lysates were immunoblotted with an antibody specific to phosphorylated Thr172 AMPK. It is noted that 2-DG induces phosphorylation at Thr172 only in LKB1 expressing cells. Both AMPK and GAPDH were used as loading controls. The blot is representative of two independent experiments. C-LKB1 null NSCLC cell are more sensitive to 2-DG. […] NSCLC cell lines were treated for 48 hours with indicated concentrations of 2-DG. Bars represent standard error.
To investigate the role of LKB1 in the effectiveness of 2-DG treatment, four NSCLC cell lines (H23, H2122, H441, H2009) were screened by immunoblot for LKB1 expression (FIG. 3A).
(§2) Cells were incubated on ice for 30 minutes with a lysis buffer containing 10 mM Tris-HCL, 150 mM NaCl and 1% IGEPAL (Sigma). […] Protein concentration was determined using the Bio-Rad DC protein kit. […]

[2] = test system: LKB1 null NSCLC cells (H23, H2122); assay: Cell viability after 2-DG (CellTiter Blue); format: cell-based, human; details: 48 hours
Description: as §1
(§3) Because LKB1-AMPK signaling can affect cell growth or cell number, the number of viable LKB1 null and LKB1 positive cells were compared after treatment with 2-DG for a range of concentrations, over time.
(§4) LKB1 negative (H23, H2122) and positive (H2009, H441) NSCLC cell lines were treated with decreasing doses of 2-deoxyglucose (2-DG) for 72 hours. Cell viability, markers of apoptosis (e.g. PARP, Caspases), and gene expression profiles were evaluated from treated versus untreated samples.
(§5) Cell lines were plated at a density of 2500 cells per well in 96 well plates. After attachment, 2-DG was diluted in media at indicated concentrations and added to wells. Treatment was carried out for 48 hours in standard cell culture conditions, before cell viability was assessed using the CellTiter® Blue kit (Promega) according to manufacturer's instructions and read on a Beckman Coulter DTX 880. The percentage of viable cells was determined by normalizing treated samples to vehicle (PBS).

[3] = test system: LKB1 positive NSCLC cells (H2009, H441); assay: Cell viability after 2-DG (CellTiter Blue); format: cell-based, human; details: 20 mM 2-DG, 48 hours
Description: as §1, §3, §4, §5

H23 cells [4] = assay: Caspase 3/7 activity (Caspase-Glo 3/7); format: cell-based, human; details: H23 (LKB1 null); increasing doses of 2-DG, 24 hours
Description: (§6) FIG. 4 (in panels A through F) illustrates in graphs and immunoblots that 2-DG induces apoptosis in LKB1 null NSCLC cells. […] Bars represent standard error and the studies were repeated twice. FIG. 4B is an immunoblot of cleaved PARP. H23 and H2009 cells were treated for 24 hours with 20 mM of 2-DG. […] GAPDH was used as a loading control. FIG. 4C is an immunoblot of LKB1 and KDLKB1 in H23 cells after retroviral infection and puromycin selection. GAPDH was used as a loading control. FIG. 4D is an immunoblot that illustrates 2-DG activation of LKB1 in H23-LKB1, but not H23-KDLKB1 cells. The blot was stripped and probed for AMPK as a loading control. The blot represents two independent studies. FIG. 4E is a graph that illustrates that LKB1, but not KDLKB1 prevents activation of caspase 3 and 7 in H23 cells. H23-LKB1 and H23-KDLKB1 cells were treated for 24 hours with 20 mM 2-DG before analysis as described hereinafter. Bars represent standard error, and the study was repeated twice. FIG. 4F is an immunoblot of cleaved PARP in H23-LKB1 and H23-KDLKB1 after treatment with 20 mM of 2-DG for 24 hours. […]
(§7) Cell lines were plated at a density of 5000 cells per well in 96 well plates. […] Activity of caspases 3 and 7 were determined using a Caspase-Glo® 3/7 kit (Promega) according to manufacturer's instructions and scanned using a Beckman Coulter DTX 880 plate reader. […]

H23 cells [5] = assay: Immunoblot of cleaved PARP; format: cell-based, human; details: 20 mM 2-DG, 24 hours
Description: as §6, with “hours. Blot is representative of two independent studies. GAPDH was used as a loading control.” for “hours.”
as §2

H23-KDLKB1 cells = assay: Immunoblot of AMPK phosphorylation after 2-DG; format: cell-based, human; details: H23-KDLKB1 cells treated with 2-DG
Description: as §6, with “hours. Blot is representative of two independent studies. GAPDH was used as a loading control.” for “hours.”
as §2

H23-LKB1 cells [6] = assay: Immunoblot of AMPK phosphorylation after 2-DG; format: cell-based, human; details: H23-LKB1 cells treated with 2-DG
Description: as §6, with “hours. Blot is representative of two independent studies. GAPDH was used as a loading control.” for “hours.”
as §2

H23-LKB1 cells [7] = assay: Caspase 3/7 activity (Caspase-Glo 3/7); format: cell-based, human; details: H23 re-expressing LKB1; 20 mM 2-DG, 24 hours
Description: as §6, §7

H23-LKB1 cells [8] = assay: Immunoblot of cleaved PARP; format: cell-based, human; details: H23 re-expressing LKB1; 20 mM 2-DG, 24 hours
Description: as §6, with “hours. Blot is representative of two independent studies. GAPDH was used as a loading control.” for “hours.”
as §2

[9] = test system: LKB1 negative cell lines (H23); assay: Microarray gene expression profiling of 2-DG-treated cells; format: cell-based, human
Description: (§8) To test this hypothesis, apoptosis-related transcripts of H23 (LKB1 null) and H2009 (LKB1 positive) cells were compared by treatment with either low (2.5 mM) or high dose (20 mM) 2-DG or vehicle (PBS) for 6 hours followed by microarray-based assessment of gene expression. […] LKB1 negative (H23, H2122) and positive (H2009, H441) NSCLC cell lines were treated with decreasing doses of 2-deoxyglucose (2-DG) for 72 hours. Cell viability, markers of apoptosis (e.g. PARP, Caspases), and gene expression profiles were evaluated from treated versus untreated samples. Total RNA was extracted from cells using TRIzol (Invitrogen) followed by RNeasy Mini Kit purification (Qiagen) according to manufacturers specifications. Spectrophotometric analysis was performed on a NanoDrop ND-1000 (Thermo Scientific) and RNA quality was assessed on a BioAnalyzer 2100 (Agilent) using strict RNA integrity QC cutoffs. 500 ng of RNA was labeled and hybridized (in duplicate) to Agilent 4×44K Whole Human Genome One-Color Oligo Microarrays according to manufacturer specifications. Slides were scanned using the Agilent Microarray Scanner (model […]) and processed with Agilent's Feature Extraction software (v. 9.5.1). Comparative and statistical analyses for gene expression profiles, were carried out using GeneSpring 7.3. Apoptosis-related genes of interest were identified by key word search (“apoptosis”) followed by unsupervised hierarchical clustering. Significance values were determined by comparing expression of all LKB1+ samples (grouped) to all LKB1- samples (grouped) for each gene using the Student's t-test and a p<0.05 cutoff after multiple testing correction using the false discovery rate (FDR) method.

[10] = test system: LKB1 positive lines (H2009); assay: as above; format: cell-based, human
Description: as §8

mTOR in LKB1 null cells = assay: mTOR activation in cells treated with 2-DG; format: cell-based; details: LKB1 null cells treated with 2-DG
COX-2 and COX-1 enzymes = details: cited from earlier work; for inhibition of COX-2 relative to COX-1: in vitro
[11] = human, single oral dose of 200 mg; cited from earlier work
[12] = cited from earlier work

In the case of `O=CC[C@@H](O)[C@H](O)[C@H](O)CO` [2-DG, 2-deoxyglucose], the “activation of AMPK (phosphorylation at Thr172)” value [1] is reported as “induced LKB1 dependent activation of AMPK”, the cell viability ([2]; LKB1 negative cells, 20 mM 2-DG) is reported as “significant decrease in cell viability” and the “cell viability compared to LKB1 positive cells” value ([2]; LKB1 null cells, all doses, lowest 2.5 mM, p=5.73×10^−13) is reported as “significant decrease in cell viability for all doses tested”. The cell viability [3] was “significant decrease in cell viability”, the “activation of caspases 3 and 7” value (H23 cells [4]) was “dose dependent activation of caspases 3 and 7” and the “cleaved PARP (marker of apoptosis)” value (H23 cells [5]) was “present”. For the same compound, the “phosphorylation of AMPK” value (H23-KDLKB1 cells) was “does not”, the “phosphorylation of AMPK” value (H23-LKB1 cells [6]) was “capable of phosphorylating AMPK” and the “2-DG induced activation of caspase 3 and 7” value (H23-LKB1 cells [7]) was “prevented 2-DG induced activation of caspase 3 and 7”. The “cleavage of PARP” value (H23-LKB1 cells [8]) was “prevented cleavage of PARP”, the “expression of BCL-2 and BCL-2 interacting proteins” value ([9]; H23 (LKB1 null), 2.5 mM or 20 mM 2-DG, 6 hours, microarray) was “dose dependent changes” and the “expression of pro-apoptotic markers” value ([9]; LKB1 negative cell lines, 2-DG-treated) was “increase in the expression of pro-apoptotic markers”. For the same compound, the “expression of pro-apoptotic markers” value [10] was “no changes in expression” and the mTOR activation (mTOR in LKB1 null cells) was “increased mTOR activation”.
For `CC(=O)Oc1ccccc1C(=O)O` [aspirin], the “inhibition of COX-2 relative to COX-1” value (COX-2 and COX-1 enzymes) is listed as “about equipotent”.
For `Cc1ccc(-c2cc(C(F)(F)F)nn2-c2ccc(S(N)(=O)=O)cc2)cc1` [celecoxib], the Cmax [11] is given as 709 ng/mL and the cardiovascular side effects ([12]; long-term use at 400 mg once daily, or 200 mg or 400 mg twice daily) is given as “severe cardiovascular side effects”.
In the case of `Cc1ccc(-c2ncc(Cl)cc2-c2ccc(S(C)(=O)=O)cc2)cn1` [etoricoxib], the “relative degree of selectivity for COX-2 over COX-1 (rank order)” value (COX-2 and COX-1 enzymes) is given as “lumiracoxib=etoricoxib>valdecoxib=rofecoxib>>celecoxib”.
For `CC(C)Cc1ccc(C(C)C(=O)O)cc1` (stereo not shown) [ibuprofen], the “inhibition of COX-2 relative to COX-1” value (COX-2 and COX-1 enzymes) is listed as “sevenfold”.
In the case of `Cc1ccc(Nc2c(F)cccc2Cl)c(CC(=O)O)c1` [lumiracoxib], the “relative degree of selectivity for COX-2 over COX-1 (rank order)” value (COX-2 and COX-1 enzymes) is listed as “lumiracoxib=etoricoxib>valdecoxib=rofecoxib>>celecoxib”.
In the case of `CS(=O)(=O)c1ccc(C2=C(c3ccccc3)C(=O)OC2)cc1` [rofecoxib], the “potency at inhibiting COX-2 relative to COX-1” value (COX-2 and COX-1 enzymes) is listed as “about 300 times” and the “increased risk of cardiovascular toxicities” value ([12]; trial to prevent adenomas) is listed as “two-fold”.
